“Also recorded” adds a separate entry of the source. Peptide text beside a SMILES is read from it.
How the values were obtained:
Format in all cases: in vivo
[1] = test system: 2-3 month old male Sprague Dawley rats; test: Stereotypy behaviour (circling and head weaving) in the open field
Procedure: Vehicle treated animals received saline vehicle injections instead of GLYX-13 and ketamine injections. Animals were placed into the open field immediately after the final dose, and behaviour was analysed for 20 min. N=8-12.

[2] = test system: somatosensory cortex; test: Attenuation in somatosensory cortex with GLYX-13 pre-treatment followed by ketamine (FIG. 4)
[3] = test system: adult male C57BL/6 male mice; test: Novel object recognition test (NOR), discrimination index
Procedure: The discrimination index is calculated using the following formula: (time spent exploring novel object−time spent exploring familiar object)/(total time spent in exploring both the novel and familiar objects).
Novel Object recognition Test (“NOR”) testing in mice was adapted from (Hashimoto K, Fujita Y, Shimizu E, Iyo M (2005). Phencyclidine-induced cognitive deficits in mice are improved by subsequent subchronic administration of clozapine, but not haloperidol. European journal of pharmacology 519(1-2): 114-117). See also, e.g., Rajagopal, et al., Current Pharmaceutical Design 2014, 20, 1. The NOR box is an open box made out of Plexiglas (52 cm L; 52 cm W; 31 cm H). The dimensions of the box we used for mice was identical to the one used for rats. The box was positioned approximately 30 cm above the floor. The walls of the box have white background, as opposed to the black background in the rat NOR studies. […] Three days prior to testing, mice were habituated to the empty NOR arena for an hour. The NOR test in mice is similar to that previously employed to study rat NOR except that the acquisition and retention trials were 10 min in duration, followed by an intertrial interval (ITI) of 24 hours during which the mice were returned to their home cages, whereas in rats, the acquisition and retention trials were three min in duration separated by a one min ITI (Horiguchi M, Meltzer HY (2012). The role of 5-HT1A receptors in phencyclidine (PCP)-induced novel object recognition (NOR) deficit in rats. Psychopharmacology 221(2): 205-215). We compared 3, 5, and 10 min times for acquisition and retention trial explorations and found 10 minutes to be optimal for reliable data collection. Both trials were recorded for blind scoring later on.
All data are expressed as mean±S.E.M. Exploration data were analysed by a two-way analysis of variance (ANOVA). This detected the main effect of drug treatment, the main effect of task, and the interaction between drug treatment and object exploration. When a significant effect was found, further analysis by a post hoc Student's t-test was performed to compare the times spent exploring the novel and familiar object. The primary endpoint was the discrimination index (DI). The DI (novel-familiar/novel+familiar) data were analysed using one-way ANOVA followed by the Bonferroni test when a significant effect was detected by the ANOVA.

CC(O)C(N)C(=O)N1CCCC1C(=O)N1CCCC1C(=O)NC(C(N)=O)C(C)O (stereo not shown) [GLYX-13] (H-TPPT-NH2; configuration not given here)
Number of stereotypy behaviour (circling and head weaving), inhibition of ketamine-induced stereotypy ([1]; GLYX-13 3 mg/kg iv 30 min before ketamine 10 mg/kg iv, behaviour analysed for 20 min): inhibits ketamine (10 mg/kg iv) induced stereotypy
Attenuation in somatosensory cortex ([2]; pre-treatment with 3 mpk GLYX-13 followed by ketamine): significant attenuation
Attenuation in somatosensory cortex ([2]; pre-treatment with 30 mpk GLYX-13 followed by ketamine): significant attenuation
Discrimination index (DI) in novel object recognition, reversal of acute ketamine-induced impairment ([3]; GLYX-13 3 mg/kg iv 30 min before ketamine 10 mg/kg sc, tested 20 min later, p<0.01 vs ketamine group): reverses acute ketamine (10 mg/kg sc) induced impairment in novel object recognition; also recorded: significant reversal in DI compared with ketamine group
Discrimination index (DI) in novel object recognition, reversal of chronic ketamine-induced impairment ([3]; mice pre-treated with ketamine 30 mg/kg IP twice daily for 7 days, GLYX-13 1 mg/kg IV 1 hr before testing, p<0.001 vs ketamine group): reverses chronic ketamine-induced impairment in novel object recognition; also recorded: significant reversal in DI compared with ketamine group
Discrimination index (DI) in novel object recognition, reversal of chronic PCP-induced impairment ([3]; mice pretreated with PCP 10 mg/kg IP twice daily for 7 days, GLYX-13 1 mg/kg IV 1 hr before testing, p<0.001 vs PCP group): reverses chronic phencyclidine-induced impairment in novel object recognition; also recorded: significant reversal in DI compared with PCP group

c1ccc(C2(N3CCCCC3)CCCCC2)cc1 [PCP, phencyclidine, reference compound]
Discrimination index (DI) in novel object recognition, effect of chronic PCP ([3]; PCP 10 mg/kg IP twice daily for 7 days, then saline vehicle 1 hr before testing, p<0.001 vs vehicle group): significant decrease in DI compared with the vehicle group

CNC1(c2ccccc2Cl)CCCCC1=O (stereo not shown) [ketamine, reference compound]
Number of stereotypy behaviour (circling and head weaving), effect of ketamine ([1]; ketamine 10 mg/kg iv, open field, 20 min): induced stereotypy
Discrimination index (DI) in novel object recognition, effect of acute ketamine ([3]; ketamine 10 mg/kg sc, tested 20 min later, p<0.0001 vs vehicle group): significant decrease in DI compared with the vehicle group
Discrimination index (DI) in novel object recognition, effect of chronic ketamine ([3]; ketamine 30 mg/kg IP twice daily for 7 days, then saline vehicle 1 hr before testing, p<0.001 vs vehicle group): significant decrease in DI compared with the vehicle group
